Results taken from US9932637B2, “Genetic polymorphisms associated with cardiovascular disorders and drug response, methods of detection and uses thereof” (CELERA CORPORATION, priority 2003, dated 2018).

System: patients with prior myocardial infarction (CARE study)
Test: CARE: association of SNPs with pravastatin treatment in RMI prevention (genotypic RR in placebo and statin strata; Table 10)
Assay type: in vivo, human
From the text: In order to identify genetic markers associated with acute coronary events (e.g. MI, stroke, unstable angina, congestive heart failure, etc.) or response to statin treatment for the prevention of coronary events, samples from the Cholesterol and Recurrent Events (CARE) study (a randomized multicentral double-blinded trial on secondary prevention of acute coronary events with pravastatin) (Sacks et al., 1991, Am. J. Cardiol. 68: 1436-1446) were genotyped. A well-documented myocardial infarction (MI) was one of the enrollment criteria for entry into the CARE study. Patients were enrolled in the CARE trial from 80 participating study centers. […] Patients were randomized to receive either 40 mg of pravastatin once daily or a matching placebo. The primary endpoint of the trial was death from coronary heart disease and the median duration of follow-up was 5.0 years (range, 4.0 to 6.2 years). […] Secondary endpoints of other related cardiovascular or metabolic disease events, and changes in clinical variables were also recorded in pravastatin-treated and placebo groups. All individuals included in the study had signed a written informed consent form and the study protocol was approved by the respective Institutional Review Boards (IRBs).
For genotyping SNPs in CARE patient samples, DNA was extracted from blood samples using conventional DNA extraction methods such as the QIA-amp kit from Qiagen. Genotypes were obtained on an ABI PRISM® 7900HT Sequence Detection PCR system (Applied Biosystems, Foster City, Calif.) by kinetic allele-specific PCR, similar to the method described by Germer et al. (Germer S., Holland M. J., Higuchi R. 2000, Genome Res. 10: 258-266).
For statistical analysis of association of SNPs with pravastatin treatment in RMI prevention (Table 10), effect sizes were estimated through genotypic RR, including 95% CIs. Homogeneity of Cochran-Mantel-Haenszel odds ratios was tested across pravastatin and placebo strata using the Wald test. […] (this adjustment supports independence of the SNP association from conventional risk factors). This table also provides the frequency data for the at risk allele in the columns labeled “Case Y PRIMER ALLELE Nucleotide Frequency” and “Control Y PRIMER ALLELE Nucleotide Frequency”. Allele frequencies for the cases and controls ≤0.49 indicate that the at-risk allele is the minor allele. Allele frequencies ≥0.50 indicate that the at-risk allele is the major allele. An example of a SNP associated with increased risk for an adverse cardiovascular event in the placebo group using a dominant genotypic test is hCV25644901. […] However, this same SNP was protective in the statin treated group with a RR of 0.58. An example of a SNP associated with an adverse cardiovascular event in the placebo group using the allelic association test is hCV16044337 with a RR of 1.87 for the homozygous AA genotype. This same genotype was protective in the statin treated group with a RR of 0.56.

**Q.** How did the “RR (relative risk for RMI)” value (HSPG2 hCV1603697, Statin stratum, het (TC)vs. ref(CC), covars none) turn out when `CC[C@H](C)C(=O)O[C@H]1C[C@H](O)C=C2C=C[C@H](C)[C@H](CC[C@@H](O)C[C@@H](O)CC(=O)O)[C@H]21` [pravastatin] was run?
**A.** 0.65

**Q.** What about the “RR (relative risk for RMI)” value (HSPG2 hCV16172339, Het(TC) stratum, Statin vs Placebo, covars none) of the same compound?
**A.** 0.37

**Q.** What about the “RR (relative risk for RMI)” value (HSPG2 hCV16172339, Maj Hom (CC) stratum, Statin vs Placebo, covars none) of the same compound?
**A.** 0.80

**Q.** What about the “RR (relative risk for RMI)” value (HSPG2 hCV16172339, Statin stratum, het (TC)vs. ref(CC), covars none) of the same compound?
**A.** 0.66

**Q.** What about the “RR (relative risk for RMI)” value (IL4R hCV2351160, Het(GA) stratum, Statin vs Placebo, covars HX_SMOKE) of the same compound?
**A.** 0.57

**Q.** And the “RR (relative risk for RMI)” value (IL4R hCV2351160, Maj Hom(AA) stratum, Statin vs Placebo, covars HX_SMOKE)?
**A.** 0.85

**Q.** What about the “RR (relative risk for RMI)” value (IL4R hCV2351160, Min Hom(GG) stratum, Statin vs Placebo, covars HX_SMOKE) of the same compound?
**A.** 0.36

**Q.** What about the “RR (relative risk for RMI)” value (IL4R hCV2351160, Statin stratum, het(GA) vs. ref(AA), covars HX_SMOKE) of the same compound?
**A.** 0.76

**Q.** And the “RR (relative risk for RMI)” value (IL4R hCV2351160, Statin stratum, hom (GG)vs. ref(AA), covars HX_SMOKE)?
**A.** 0.61

**Q.** And the “RR (relative risk for RMI)” value (IL4R hCV2769554, Het(GA) stratum, Statin vs Placebo)?
**A.** 0.64

**Q.** And the “RR (relative risk for RMI)” value (IL4R hCV2769554, Maj Hom(AA) stratum, Statin vs Placebo)?
**A.** 0.59

**Q.** What about the “RR (relative risk for RMI)” value (IL4R hCV2769554, Min Hom(GG) stratum, Statin vs Placebo) of the same compound?
**A.** 1.56

**Q.** And the “RR (relative risk for RMI)” value (IL4R hCV2769554, Statin stratum, het(GA) vs. ref(AA))?
**A.** 1.17

**Q.** What about the “RR (relative risk for RMI)” value (IL4R hCV2769554, Statin stratum, hom(GG) vs. ref(AA)) of the same compound?
**A.** 1.26

**Q.** And the “RR (relative risk for RMI)” value (ITGA9 hCV3215409, Het(GA) stratum, Statin vs Placebo)?
**A.** 0.86

**Q.** And the “RR (relative risk for RMI)” value (ITGA9 hCV3215409, Maj Hom(AA) stratum, Statin vs Placebo)?
**A.** 0.84

**Q.** And the “RR (relative risk for RMI)” value (ITGA9 hCV3215409, Min Hom(GG) stratum, Statin vs Placebo)?
**A.** 0.30

**Q.** And the “RR (relative risk for RMI)” value (ITGA9 hCV3215409, Statin stratum, het (GA)vs. ref(AA))?
**A.** 1.22

**Q.** What about the “RR (relative risk for RMI)” value (ITGA9 hCV3215409, Statin stratum, hom(GG) vs. ref(AA)) of the same compound?
**A.** 0.54

**Q.** What about the “RR (relative risk for RMI)” value (LAMA2 hCV16047108, Het (GA) stratum, Statin vs Placebo) of the same compound?
**A.** 1.31

**Q.** What about the “RR (relative risk for RMI)” value (LAMA2 hCV16047108, Maj Hom (AA) stratum, Statin vs Placebo) of the same compound?
**A.** 0.63

**Q.** And the “RR (relative risk for RMI)” value (LAMA2 hCV16047108, Statin stratum, het(GA) vs. ref (AA))?
**A.** 2.02

**Q.** And the “RR (relative risk for RMI)” value (LAMA2 hCV16047108, Statin stratum, hom(GG) vs. ref (AA))?
**A.** 4.97

**Q.** What about the “RR (relative risk for RMI)” value (LPA hCV11225994, Het(GA) stratum, Statin vs Placebo) of the same compound?
**A.** 1.02

**Q.** What about the “RR (relative risk for RMI)” value (LPA hCV11225994, Maj Hom(GG) stratum, Statin vs Placebo) of the same compound?
**A.** 0.62

**Q.** What about the “RR (relative risk for RMI)” value (LPA hCV11225994, Min Hom(AA) stratum, Statin vs Placebo) of the same compound?
**A.** 1.33

**Q.** What about the “RR (relative risk for RMI)” value (LPA hCV11225994, Statin stratum, het(GA) vs. ref (GG)) of the same compound?
**A.** 1.06

**Q.** What about the “RR (relative risk for RMI)” value (LPA hCV11225994, Statin stratum, hom (AA)vs. ref(GG)) of the same compound?
**A.** 2.34

**Q.** And the “RR (relative risk for RMI)” value (MACF1 hCV3112686, Het(GC) stratum, Statin vs Placebo, covars HX_SMOKE)?
**A.** 0.71

**Q.** And the “RR (relative risk for RMI)” value (MACF1 hCV3112686, Maj Hom(CC) stratum, Statin vs Placebo, covars HX_SMOKE)?
**A.** 0.96

**Q.** And the “RR (relative risk for RMI)” value (MACF1 hCV3112686, Min Hom(GG) stratum, Statin vs Placebo, covars HX_SMOKE)?
**A.** 0.42

**Q.** And the “RR (relative risk for RMI)” value (MACF1 hCV3112686, Statin stratum, het(GC) vs. ref(CC), covars HX_SMOKE)?
**A.** 0.98

**Q.** What about the “RR (relative risk for RMI)” value (MACF1 hCV3112686, Statin stratum, hom(GG) vs. ref(CC), covars HX_SMOKE) of the same compound?
**A.** 0.60

**Q.** And the “RR (relative risk for RMI)” value (NPC1 hCV25472673, Het(TC) stratum, Statin vs Placebo, covars none)?
**A.** 0.61

**Q.** What about the “RR (relative risk for RMI)” value (NPC1 hCV25472673, Maj Hom(TT) stratum, Statin vs Placebo, covars none) of the same compound?
**A.** 1.08

**Q.** What about the “RR (relative risk for RMI)” value (NPC1 hCV25472673, Statin stratum, het(TC) vs. ref(TT), covars none) of the same compound?
**A.** 0.76

**Q.** And the “RR (relative risk for RMI)” value (NPC1 hCV25472673, Statin stratum, hom(CC) vs. ref(TT), covars none)?
**A.** 0.87

**Q.** And the “RR (relative risk for RMI)” value (PLAB hCV7494810, Het(GC) stratum, Statin vs Placebo, covars HX_SMOKE)?
**A.** 0.46

**Q.** And the “RR (relative risk for RMI)” value (PLAB hCV7494810, Maj Hom(CC) stratum, Statin vs Placebo, covars HX_SMOKE)?
**A.** 0.94

**Q.** What about the “RR (relative risk for RMI)” value (PLAB hCV7494810, Min Hom(GG) stratum, Statin vs Placebo, covars HX_SMOKE) of the same compound?
**A.** 0.75

**Q.** What about the “RR (relative risk for RMI)” value (PLAB hCV7494810, Statin stratum, het(GC) vs. ref(CC), covars HX_SMOKE) of the same compound?
**A.** 0.67

**Q.** And the “RR (relative risk for RMI)” value (PLAB hCV7494810, Statin stratum, hom(GG) vs. ref(CC), covars HX_SMOKE)?
**A.** 0.68

**Q.** And the “RR (relative risk for RMI)” value (PPOX hCV25922816, Het(GA) stratum, Statin vs Placebo)?
**A.** 0.42

**Q.** And the “RR (relative risk for RMI)” value (PPOX hCV25922816, Maj Hom(GG) stratum, Statin vs Placebo)?
**A.** 0.82

**Q.** What about the “RR (relative risk for RMI)” value (PPOX hCV25922816, Statin stratum, het(GA) vs. ref(GG)) of the same compound?
**A.** 0.64

**Q.** And the “RR (relative risk for RMI)” value (PTPRJ hCV8895373, Het(GA) stratum, Statin vs Placebo)?
**A.** 1.07

**Q.** And the “RR (relative risk for RMI)” value (PTPRJ hCV8895373, Maj Hom(GG) stratum, Statin vs Placebo)?
**A.** 0.60

**Q.** And the “RR (relative risk for RMI)” value (PTPRJ hCV8895373, Min Hom(AA) stratum, Statin vs Placebo)?
**A.** 1.62

**Q.** What about the “RR (relative risk for RMI)” value (PTPRJ hCV8895373, Statin stratum, het(GA) vs. ref (GG)) of the same compound?
**A.** 1.43

**Q.** And the “RR (relative risk for RMI)” value (PTPRJ hCV8895373, Statin stratum, hom(AA)vs. ref(GG))?
**A.** 1.14

**Q.** What about the “RR of adverse cardiovascular event in the statin treated group” value (hCV16044337, homozygous AA genotype) of the same compound?
**A.** 0.56

**Q.** And the “RR of adverse cardiovascular event in the statin treated group” value (hCV25644901, dominant genotype (GG or GA))?
**A.** 0.58
